Assay results taken from US6369061B1, “Therapeutic agent for spinal canal stenosis” (Mitsubishi Pharma Corporation, priority 1998, dated 2002).

Test system: rabbit acute spinal canal stenosis model
Assay: Rabbit cauda equina nerve graded constriction model as rabbit acute spinal canal stenosis model (nerve conduction velocity, tissue blood flow, tissue oxygen tension)
Assay type: in vivo
Conditions: for Cauda equina nerve conduction velocity / Cauda equina nerve tissue blood flow / Cauda equina nerve tissue oxygen tension: measured 8 days after model preparation, mean ± standard error
Experimental: Effects of compound A on cauda equina nerve conduction velocity, cauda equina nerve tissue blood flow and variation in cauda equina nerve tissue oxygen tension in a rabbit acute spinal canal stenosis model
(1) Preparation of the Rabbit Cauda Equina Nerve Graded Constriction Model as Rabbit Acute Spinal Canal Stenosis Model Male Japanese white rabbits were fixed at the abdominal position under anesthesia by an intravenous injection of pentobarbital sodium (25 mg/kg, DAINIPPON PHARMACEUTICAL CO., LTD.) and the vertebral arch of the fifth lumbar vertebra was removed under a microscope (OLYMPUS OME) observation to expose cauda equina nerve. After the cauda equina nerve fascicle was gently ligated at one site together with a 26 G injection needle using a catgut suture (chromic catgut (thread 4-0, needle 12.9 mm), Johnson and Johnson), the injection needle was pulled out, and the dissected portion was sutured. In the sham operation group, the cauda equina nerve was only exposed and the dissected portion was sutured.
The rabbits were grouped in turn into a sham operation group (6 rabbits), a solvent group (6 rabbits), a compound A (3 mg/kg) administration group (6 rabbits), a compound A (10 mg/kg) administration group (6 rabbits), a compound A (30 mg/kg) administration group (6 rabbits), and a cilostazol (300 mg/kg, the same anti-platelet drug as compound A as a control drug, Otsuka Pharmaceutical Co., Ltd.) administration group (6 rabbits).
The drug was prepared into the volume of 5 mL/kg by suspending in 0.5% methylcellulose solution, and orally administered repeatedly once a day for 7 consecutive days from the next day of the model preparation. The 0.5% methylcellulose solution (5 mL/kg) was administered in the same manner to the solvent group. Nothing was administered to the sham operation group.
The next day of the final administration (8 days after model animals preparation), the model animals were anesthetized by an intravenous injection of pentobarbital sodium (25 mg/kg) and, after insertion of a tracheal catheter, fixed at the abdominal position. The rabbits were connected to a ventilator (45 times/min) and given pancuronium bromide (0.08 mg/kg, Sankyo Co., Ltd.) by an intravenous administration. The cauda equina nerve tissue blood flow in the downstream portion of the ligation site was measured transdurally using a laser blood flowmeter [ADVANCED LASER FLOWMETER, ALF2100, Advance] under the microscope observation. The cauda equina nerve tissue oxygen tension was measured at the same site using a pO2 monitor (model POG-201, Unique Medical Co. Ltd.). The cauda equina nerve conduction velocity was obtained by deriving the action potential induced by a spinal electric stimulus in the upper point and lower point of the ligation site and dividing the distance between the both points by the difference in the rise latent time (SIGNAL PROCESSOR, San-ei).
The obtained results are shown in mean±standard error. Using SAS (Statistical Analysis System), the following statistical analysis was performed. The sham operation group and the solvent group were compared by the Student's t-test. The effect of the drug was verified by the Dunnett's method to the solvent group as a control. In both tests, p<0.05 was taken as statistically significant.

[1] = 3 mg/kg p.o. once a day for 7 days
[2] = 10 mg/kg p.o. once a day for 7 days
[3] = 30 mg/kg p.o. once a day for 7 days
[4] = 300 mg/kg p.o. once a day for 7 days
[5] = 300 mg/kg p.o., vs. solvent group

Structure (SMILES)	Cauda equina nerve conduction velocity [1] [cm/ms]	Cauda equina nerve tissue blood flow [1] [ml/min. 100 g tissue]	Cauda equina nerve tissue oxygen tension [1] [mmHg]	Cauda equina nerve conduction velocity [2] [cm/ms]	Cauda equina nerve tissue blood flow [2] [ml/min. 100 g tissue]	Cauda equina nerve tissue oxygen tension [2] [mmHg]	Cauda equina nerve conduction velocity [3] [cm/ms]	Cauda equina nerve tissue blood flow [3] [ml/min. 100 g tissue]	Cauda equina nerve tissue oxygen tension [3] [mmHg]	Effect on cauda equina nerve tissue blood flow (in words) (30 mg/kg p.o., vs. solvent group)	Effect on decrease in cauda equina nerve conduction velocity (in words) (3, 10, 30 mg/kg p.o., vs. solvent group)	Effect on cauda equina nerve tissue oxygen tension (in words) (3, 10, 30 mg/kg p.o., vs. solvent group, significant at 30 mg/kg)	Cauda equina nerve conduction velocity [4] [cm/ms]	Cauda equina nerve tissue blood flow [4] [ml/min. 100 g tissue]	Cauda equina nerve tissue oxygen tension [4] [mmHg]	Effect on cauda equina nerve conduction velocity (in words) [5]	Effect on cauda equina nerve tissue blood flow (in words) [5]	Effect on cauda equina nerve tissue oxygen tension (in words) [5]
Cl.O=c1[nH]nc(OCCCc2ccc(Cl)cc2)c(NCc2cccnc2)c1Br [Compound A, 4-bromo-6-[3-(4-chlorophenyl)propoxy]-5-(3-pyridylmethylamino)-3(2H)-pyridazinone hydrochloride]	20.327 ± 4.871	23.33 ± 4.59	35.5 ± 5.6	22.838 ± 3.571	24.42 ± 2.70	42.8 ± 5.8	27.098 ± 3.627	33.67 ± 4.21	49.8 ± 3.4	significantly increased	significantly lessened the decrease in a dose-dependent manner	showed a dose-dependent increase	–	–	–	–	–	–
O=C1CCc2cc(OCCCCc3nnnn3C3CCCCC3)ccc2N1 [Cilostazol, cilostazol, reference compound]	–	–	–	–	–	–	–	–	–	–	–	–	14.585 ± 2.606	21.88 ± 4.25	33.7 ± 5.3	did not improve the velocity	not improved	did not show an increasing effect
